This is an account of results in patent publication US10159640B2, “Prebiotic oral care compositions containing amino acids” (COLGATE-PALMOLIVE COMPANY, priority 2013, dated 2018).

Holding throughout (assay type): cell-based
One experiment relates to Porphyromonas gingivalis. The experiment in a line: Biofilm growth assay in BHI, crystal violet. The following applies: control = 1. On the procedure:
(§1) The increase in biofilm formation of the tested bacteria in response to selected compounds (Met-Pro, Phe-Glu) was investigated by setting up biofilm growth assays in a nutritionally rich medium (brain heart infusion broth (BHI), Oxoid), over 48 hours. Late exponential growth phase liquid cultures were prepared by transferring the respective bacterium from blood agar plates to BHI and overnight incubation at 37° C. in an anaerobic atmosphere for A. viscosus, V. parvula, F. nucleatum, P. gingivalis, P. intermedia, T. forsythia, A. naeslundii, and C. sputigena, and in a 5% CO2 environment for S. salivarius, S. sanguinis, S. mitis, A. actinomycetemcomitans, S. mutans, and S. gordonii. Overnight cultures were transferred to BHI and adjusted to a concentration of 1×10^7 CFU/ml by measuring the optical density at 600 nm (OD600) (BioRad SmartSpec 3000). For each strain, 200 μl of the bacterial suspension was added to a 96-well plate containing 20 μl of the respective di-peptides. Final concentrations of the di-peptides were set to 5, 10, 20 and 25 μmol/ml. […] Additionally, for each bacterium tested, a background control, to correct for background staining, was added. This background control contained the bacterium tested and 0.03 weight % chlorhexidine, as an antiseptic. Plates were incubated as previously described. After 48 hrs the supernatant was removed from the wells of the plates. The wells were washed twice with 1×100 μL PBS (phosphate buffered saline), fixed for 20 minutes with 96% vol. ethanol (96% vol. solution in water) and the biofilm retained at the bottom of the wells was stained with 1 weight % crystal violet (1 weight % solution in water). The bound dye was dissolved with 5% vol. acetic acid (5% vol. solution in water). Quantification of the stained biofilm was performed by measuring the absorbance at 630 nm using a Multiskan Ascent microplate reader (Thermo Scientific).
(§2) The experiment was carried out on three different days (thus providing 3 biological replicas) and each day the experiment was carried out in quadruple (thus providing 4 technical replicas) for each combination of bacterium with dipeptide and for each control. For each day and for each combination, the average (mean) of the values obtained (as detailed above) for the four technical replicas was calculated to provide a single value for each combination on each day. The values shown in Tables 7 to 8, below, are the average (mean) of the three single values obtained for each combination of bacterium with dipeptide.

In another experiment the test system is Tannerella forsythia. The experiment in a line: Biofilm growth assay in BHI, crystal violet. The following applies: control = 1. On the procedure:
as §1, §2

The test system of the next experiment is Veillonella parvula. The experiment can be described thus: Biofilm growth assay in BHI, crystal violet. The following applies: control = 1. On the procedure:
as §1, §2

The subject of a further experiment is Fusobacterium nucleatum. The experiment can be described thus: Biofilm growth assay in BHI, crystal violet. The following applies: control = 1. On the procedure: as §1, §2
In experiment [1] the test system is beneficial oral bacteria and pathogenic oral bacteria. The experiment in a line: Metabolic activity, whole panel: prebiotic effect. The following applies: threshold value of 2. Put shortly:
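Biolog phenotype microarrays with dipeptide-preloaded wells; each species suspended in IF-0 with Redox Dye Mix D (85% transmittance) plus succinate/ferric citrate, incubated anaerobically at 37° C. Tetrazolium reduction read at 492 nm at 24 and 48 h versus no-dipeptide controls; values are means of three biological replicates.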

For experiment [2] the test system is unchanged. The experiment in a line: Biofilm growth, whole panel: prebiotic effect. The following applies: threshold value of 1.6. The procedure: Substrates that were able to increase the biofilm mass of at least one of the above beneficial bacteria while not or only minimally increasing the biofilm mass of the pathogenic bacteria are considered to be prebiotic compounds.
as §1, §2
This value was selected in order to exclude low-stimulating metabolites and avoid false positive results.

As for Met-Pro, the “biofilm growth: OD 630 nm (crystal violet) at 48 hrs divided by OD of control” value in the experiment with Porphyromonas gingivalis (5 μmol/ml) turned out to be 0.6831; in the experiment with Porphyromonas gingivalis (10 μmol/ml), 0.7344; in the experiment on Porphyromonas gingivalis (20 μmol/ml), 0.8922; in the experiment with Porphyromonas gingivalis (25 μmol/ml) it was 0.4990; in the experiment with Tannerella forsythia (5 μmol/ml), 0.4857; with Tannerella forsythia (10 μmol/ml), 0.4691. Further, the “biofilm growth: OD 630 nm (crystal violet) at 48 hrs divided by OD of control” value with Tannerella forsythia (20 μmol/ml) worked out at 0.2726; in the experiment with Tannerella forsythia (25 μmol/ml) it was 0.1909; with Veillonella parvula (5 μmol/ml), 0.2845; in the experiment with Veillonella parvula (10 μmol/ml), 0.2886; in the experiment with Veillonella parvula (20 μmol/ml), 0.1745; in the experiment with Veillonella parvula (25 μmol/ml), 0.2121. Further, the “biofilm growth: OD 630 nm (crystal violet) at 48 hrs divided by OD of control” value came to 0.6087 in the experiment with Fusobacterium nucleatum (5 μmol/ml), 0.5568 in the experiment with Fusobacterium nucleatum (10 μmol/ml), 0.6796 in the experiment on Fusobacterium nucleatum (20 μmol/ml) and 0.5216 in the experiment with Fusobacterium nucleatum (25 μmol/ml). For the same substance, the “prebiotic effects (metabolic activity)” value in experiment [1] (24 hrs) and in experiment [1] (48 hrs) was “exhibited prebiotic effects” throughout. For the same substance, the “prebiotic effects (biofilm growth)” value in experiment [2] (10 μmol/ml), in experiment [2] (20 μmol/ml) and in experiment [2] (25 μmol/ml) was “exhibited prebiotic effects” throughout.
With Phe-Glu, the “biofilm growth: OD 630 nm (crystal violet) at 48 hrs divided by OD of control” value is on record as 0.7552 in the experiment on Porphyromonas gingivalis (5 μmol/ml); 0.9004 in the experiment with Porphyromonas gingivalis (10 μmol/ml); 0.1717 with Porphyromonas gingivalis (20 μmol/ml); 0.3008 in the experiment with Porphyromonas gingivalis (25 μmol/ml); 0.5744 in the experiment on Tannerella forsythia (5 μmol/ml); 0.3083 in the experiment with Tannerella forsythia (10 μmol/ml). The “biofilm growth: OD 630 nm (crystal violet) at 48 hrs divided by OD of control” value in the experiment with Tannerella forsythia (20 μmol/ml) was determined as 0.0188; with Tannerella forsythia (25 μmol/ml) it was 0.0254; in the experiment with Veillonella parvula (5 μmol/ml), 0.3257; in the experiment with Veillonella parvula (10 μmol/ml) it was 0.3136; in the experiment with Veillonella parvula (20 μmol/ml), 0.1638; with Veillonella parvula (25 μmol/ml) it was 0.2969. Further, the “biofilm growth: OD 630 nm (crystal violet) at 48 hrs divided by OD of control” value in the experiment with Fusobacterium nucleatum (5 μmol/ml) was 0.2553; in the experiment on Fusobacterium nucleatum (10 μmol/ml) it was 0.2232; with Fusobacterium nucleatum (20 μmol/ml) it was 0.0056; in the experiment with Fusobacterium nucleatum (25 μmol/ml), 0.0112. The “prebiotic effects (metabolic activity)” value in experiment [1] (24 hrs) and in experiment [1] (48 hrs) was “exhibited prebiotic effects” in each case. For the same substance, the “prebiotic effects (biofilm growth)” value in experiment [2] (5 μmol/ml) and in experiment [2] (10 μmol/ml) was “exhibited prebiotic effects” in each case.
